This is an account of results in patent US9241920B2, “Inhibition of c-Myc ubiquitination to prevent cancer initiation and progression” (NEW YORK UNIVERSITY, priority 2011, dated 2016).

The test system of experiment [1] is human CD34+ cells (CML patients) depleted of Fbw7. Kind of experiment: Apoptosis (annexin V staining) of Fbw7-depleted human CML CD34+ cells. The format is cell-based. The following applies: human CD34+ cells after depletion of Fbw7; decrease of c-Myc activity. How it is done: Viable bone marrow mononuclear cells from two treatment-naïve patients in the chronic phase of CML were obtained from AllCells. To examine the role of FBW7 in the maintenance of LICs for human CML, bone marrow mononuclear cells were transfected with 300 nM FBW7 siRNAs (Stealth Select RNAi siRNA, Invitrogen) by electroporation with the use of an Amaxa Nucleofector II device (Lonza) according to the manufacture's instructions. The transfected cells were then stained with antibodies to human CD34 (8G12), CD3 (SK7), CD16 (3G8), CD19 (SJ25C1), CD20 (L27), CD14 (MφP9), and CD56 (NCAM16.2) (BD Biosciences). CD3, CD16, CD19, CD20, CD14, and CD56 were used as lineage markers. CD34^+Lin^− cells were purified by FACS and cocultured with OP-9 cells for 7 days. For assays of apoptosis, cells were collected after 7 days of culture, stained for cell surface markers, further incubated for 15 min with annexin V (BD Biosciences) and then analyzed by flow cytometry.

Experiment [2] deals with human CD34+Lin- cells (CML patients) depleted of Fbw7. As to the kind of experiment: Colony forming unit assay of Fbw7-depleted human CML CD34+ cells. In kind it is cell-based. The following applies: human CD34+ cells after depletion of Fbw7; decrease of c-Myc activity. How it is done:
For the in vitro CFU experiments, mice received 5 intra-peritoneal (IP) injections of poly(I:C) at a dose of 20 ug/g, and LSK cells were purified 10 days post poly(I:C). LSK cells were purified and infected with Bcr-Abl-NGFR or Bcr-Abl-GFP retrovirus as described above. Bcr-Abl^+ lineage negative cells were sorted 72 hours after the first infection and 1000 cells were seeded into cytokine-supplemented methylcellulose medium (MethoCult 3434, Stem Cell Technologies). Colonies were counted 7 days after they were seeded and 4000 cells were re-plated and colonies were counted after another 7 days (14 days total). For human CFU assay, cells were collected after 7 days of culture, and 1×10^3 CD34^+Lin^− cells were transferred to Methocult medium (MethoCult GF H4435, StemCell Technologies). The number of colonies was counted 1 week after plating.
Viable bone marrow mononuclear cells from two treatment-naïve patients in the chronic phase of CML were obtained from AllCells. […] For assays of apoptosis, cells were collected after 7 days of culture, stained for cell surface markers, further incubated for 15 min with annexin V (BD Biosciences) and then analyzed by flow cytometry.

In the case of `CCc1ccc(/C=C2/SC(=S)NC2=O)cc1` [10058-F4], in experiment [1], the “apoptosis of Fbw7-depleted cells” value is “rescued cells from apoptosis”. In addition, the “colony forming ability of Fbw7-depleted cells” value in experiment [2] was “rescued”.
